Measurements published in patent US20130324603A1, “PHARMACEUTICAL COMPOSITION FOR TREATING INFLAMMATION AND PAIN” (priority 2012, published 2013).

System: arachidonic acid-induced ear swelling
Assay: topical arachidonic acid-induced ear swelling model in mice
Format: in vivo
Details: for % Inhibition of ear swelling: measured at 90 minutes, male ICR mice; for inhibition in the ear swelling induced by arachidonic acid relative to vehicle-treated group (in words): statistically significant, p<0.05
Procedure: The active compounds (methanesulfonylalkylnitriles, n=1-6), indomethacin (positive control), and vehicle were evaluated for anti-inflammatory activity in a topical arachidonic acid-induced ear swelling model in mice.
Methanesulfonylacetonitrile (n=1) was purchased from Aldrich. Methanesulfonylalkylnitriles, n=2-5 were prepared by a method modified from Hsi et al. (Scientia Sinica 1974, 17, 743-751) with 30% hydrogen peroxide as the oxidizing agent. 7-methanesulfonylheptanenitrile (n=6) was prepared according to Example 1. Each active compound and the positive control were dissolved in vehicle (ethanol/acetone 1:1).
Male ICR mice weighing 22±2 g were used and randomly divided; each group had 10 mice. Arachidonic Acid (0.5 mg in 20 μl of acetone:ethanol/1:1) was applied topically to the anterior and posterior surfaces of the right ear of each mice. Test substances and vehicle, as listed in Table 3 were similarly topically applied 30 min before and 15 min after arachidonic acid application. The thickness of the right ear and the left ear was measured and the difference calculated as an indication of the inflammation in the right ear. Ear swelling was measured by a Dyer model micrometer gauge at 60 and 90 minutes after arachidonic acid application as an index of inflammation. Percent inhibition was calculated according to the formula: Ic−It/Ic×100, where Ic and It refers to increase of ear thickness (mm) in control and treated mice, respectively. ANOVA and Dunnett's test were employed to ascertain significant difference between vehicle control and treated groups. Significance is set at P<0.05 level.

[1] = 375 mM in acetone:ethanol (1:1), 20 μL, 30 min before and 15 min after arachidonic acid

Structure (SMILES)	% Inhibition of ear swelling [1] [%]	inhibition in the ear swelling induced by arachidonic acid relative to vehicle-treated group (in words)	% Inhibition of ear swelling (positive control, 14 mM (0.5% w/v), 0.1 mg/20 μL) [%]
CS(=O)(=O)CCCCCCC#N [7-methanesulfonylheptanenitrile]	46	significant inhibition	–
CS(=O)(=O)CCCC#N [4-methanesulfonylbutyronitrile]	15	–	–
CS(=O)(=O)CCC#N [3-methanesulfonylpropionitrile]	36	significant inhibition	–
COc1ccc2c(c1)c(CC(=O)O)c(C)n2C(=O)c1ccc(Cl)cc1 [Indomethacin, reference compound]	–	–	53
CS(=O)(=O)CCCCCC#N [6-methanesulfonylhexanenitrile]	8	–	–
CS(=O)(=O)CCCCC#N [5-methanesulfonylpentanenitrile]	24	significant inhibition	–
CS(=O)(=O)CC#N [Methanesulfonylacetonitrile, methanesulfonylacetonitrile]	22	significant inhibition	–
